Measured values as given in publication PMC11766267 (International Journal of Molecular Sciences, 2025).
“And” between values parts separate entries of the source, which are not always exact repeats. Equal entries are not always repeated. Where two headings read alike, the source gives them in different places.

Columns and labels:
[1] = system: HCT-116, MDA-MB-231, HeLa, and MCF-7; test: MTT cytotoxicity assay, ranges stated over several cell lines; assay type: cell-based; details: Homo sapiens
Description: (§1) Subsequently, 100 µL of dimethyl sulfoxide was introduced to dissolve the insoluble formazan.

MCF-7 [2] = test: MTT cytotoxicity assay, MCF-7; assay type: cell-based, human; details: Homo sapiens, MCF7, 24 h, 24 h treatment, mean ± SD of triplicate
Description: as §1

MCF-7 [3] = test: In vitro anti-estrogenic activity assay, MCF-7
MDA-MB-231 = test: MTT cytotoxicity assay, MDA-MB-231; assay type: cell-based; details: Homo sapiens, 24 h treatment, mean ± SD of triplicate
Description: as §1

HeLa = test: MTT cytotoxicity assay, HeLa; assay type: cell-based; details: Homo sapiens, 24 h treatment, mean ± SD of triplicate
Description: as §1

VEGFR-2 = VEGFR-2 (Homo sapiens, UniProt P35968); test: In vitro protein kinase inhibition assay (ELISA kit), VEGFR-2; details: individual Data 1-3
MCF-7a = test: In vitro anti-estrogenic activity assay, MCF-7a
HER2 = HER2 (Homo sapiens, UniProt P04626); test: In vitro protein kinase inhibition assay (ELISA kit), HER2
[4] = MTT cytotoxicity assay, normal cell line WI-38; assay type: cell-based, human; details: human, WI-38 cells (normal human lung fibroblasts), normal (non-cancer) cell line, 24 h treatment
Description: as §1

CDK2 = CDK2 (Homo sapiens, UniProt P24941); test: In vitro protein kinase inhibition assay (ELISA kit), CDK2
[5] = biological target: T1, aromatase (CYP19A, EC 1.14.14.14) (Homo sapiens, UniProt P11511); test: biochemical; details: individual Data 1-3
T1 construct: Microsomal samples were isolated from tissue using the Microsome Isolation Kit; tissue BioVision K983-100; host or cells: microsomes from an unnamed tissue
T1 sequence (P11511 1-503): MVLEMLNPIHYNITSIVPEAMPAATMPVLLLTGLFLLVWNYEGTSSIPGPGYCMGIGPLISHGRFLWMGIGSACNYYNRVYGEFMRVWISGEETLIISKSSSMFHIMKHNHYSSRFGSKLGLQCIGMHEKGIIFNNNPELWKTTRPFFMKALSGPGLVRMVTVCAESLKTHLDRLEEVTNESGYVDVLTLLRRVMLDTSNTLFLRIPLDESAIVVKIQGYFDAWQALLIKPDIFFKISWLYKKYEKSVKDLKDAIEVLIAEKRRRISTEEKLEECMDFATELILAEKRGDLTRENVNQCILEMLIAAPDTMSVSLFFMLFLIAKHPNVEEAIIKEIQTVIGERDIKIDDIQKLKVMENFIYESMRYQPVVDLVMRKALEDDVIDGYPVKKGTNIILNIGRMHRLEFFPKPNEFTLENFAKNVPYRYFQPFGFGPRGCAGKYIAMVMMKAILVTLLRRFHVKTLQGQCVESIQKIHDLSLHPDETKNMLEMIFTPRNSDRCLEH
Description: In vitro aromatase assay was performed using the BioVision Aromatase Activity Assay Kit (Catalog # K983-100; BioVision, Milpitas, CA, USA). Microsomal samples were isolated from tissue using the Microsome Isolation Kit (Cat. #K249; BioVision, Milpitas, CA, USA). A standard curve was established by diluting the Fluorescence Standard provided in the kit to create a 0.5 pmole/µL solution, followed by setting up a series of standards in a white 96-well plate, adjusting the total volume to 100 µL with aromatase assay buffer. For each reaction well, a 2X concentrated mix was prepared by adding 2–48 µL of the microsomal sample and 2 µL of the NADPH generating system, bringing the final volume to 50 µL with aromatase assay buffer. Background controls (no enzyme) and positive controls (with recombinant aromatase) were included. […] After a 10 min incubation at 37 °C, 30 µL of the substrate/NADP+ mixture was added to each well, and fluorescence was measured immediately in kinetic mode for 60 min at 37 °C. Finally, the change in fluorescence was calculated to determine the specific activity of aromatase using the formula provided in the kit protocol.

HCT-116 = test: MTT cytotoxicity assay, HCT-116; assay type: cell-based; details: Homo sapiens, 24 h treatment, mean ± SD of triplicate
Description: as §1

WI-38 = test: MTT cytotoxicity assay, normal cell line WI-38; assay type: cell-based, human; details: normal (non-cancer) cell line, 24 h treatment
Description: as §1

[6] = HCT-116, MDA-MB-231, HeLa, MCF-7, range, read-out: IC50 values, range over the cancer cell lines tested
[7] = cell count relative to the control (17β-E2)

Sequence of HER2 (P04626 23-1255): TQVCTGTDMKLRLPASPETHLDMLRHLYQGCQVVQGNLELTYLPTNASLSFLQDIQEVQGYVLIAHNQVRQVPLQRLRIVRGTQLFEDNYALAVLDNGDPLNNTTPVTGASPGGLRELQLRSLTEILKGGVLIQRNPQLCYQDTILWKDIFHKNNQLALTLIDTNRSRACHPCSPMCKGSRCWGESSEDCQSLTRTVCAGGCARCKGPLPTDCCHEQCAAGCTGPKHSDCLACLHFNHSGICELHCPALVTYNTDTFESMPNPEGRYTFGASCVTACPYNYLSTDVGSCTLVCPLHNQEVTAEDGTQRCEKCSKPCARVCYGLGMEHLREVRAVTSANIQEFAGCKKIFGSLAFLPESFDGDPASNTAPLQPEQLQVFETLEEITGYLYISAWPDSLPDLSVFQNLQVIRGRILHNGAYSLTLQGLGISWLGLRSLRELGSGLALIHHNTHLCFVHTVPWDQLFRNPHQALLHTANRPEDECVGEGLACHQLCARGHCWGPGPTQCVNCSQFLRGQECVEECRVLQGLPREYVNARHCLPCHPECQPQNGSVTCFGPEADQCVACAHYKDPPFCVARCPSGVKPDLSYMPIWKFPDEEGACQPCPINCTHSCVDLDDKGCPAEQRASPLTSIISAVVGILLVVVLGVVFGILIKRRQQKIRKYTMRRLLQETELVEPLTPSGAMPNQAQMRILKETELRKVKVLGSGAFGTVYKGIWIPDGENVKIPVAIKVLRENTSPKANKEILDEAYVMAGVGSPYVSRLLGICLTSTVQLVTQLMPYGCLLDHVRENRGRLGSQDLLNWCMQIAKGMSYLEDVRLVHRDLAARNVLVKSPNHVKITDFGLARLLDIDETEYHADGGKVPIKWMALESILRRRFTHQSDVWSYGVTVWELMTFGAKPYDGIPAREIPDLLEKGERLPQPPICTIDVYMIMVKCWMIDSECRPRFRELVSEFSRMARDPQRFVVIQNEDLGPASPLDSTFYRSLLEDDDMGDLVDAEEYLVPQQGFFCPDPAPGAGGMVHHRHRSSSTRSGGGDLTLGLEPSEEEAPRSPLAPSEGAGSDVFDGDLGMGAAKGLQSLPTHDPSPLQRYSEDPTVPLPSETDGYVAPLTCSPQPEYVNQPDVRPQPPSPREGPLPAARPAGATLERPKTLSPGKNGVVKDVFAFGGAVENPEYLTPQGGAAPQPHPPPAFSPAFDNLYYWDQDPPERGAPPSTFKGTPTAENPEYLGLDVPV
Sequence of VEGFR-2 (P35968 20-1356): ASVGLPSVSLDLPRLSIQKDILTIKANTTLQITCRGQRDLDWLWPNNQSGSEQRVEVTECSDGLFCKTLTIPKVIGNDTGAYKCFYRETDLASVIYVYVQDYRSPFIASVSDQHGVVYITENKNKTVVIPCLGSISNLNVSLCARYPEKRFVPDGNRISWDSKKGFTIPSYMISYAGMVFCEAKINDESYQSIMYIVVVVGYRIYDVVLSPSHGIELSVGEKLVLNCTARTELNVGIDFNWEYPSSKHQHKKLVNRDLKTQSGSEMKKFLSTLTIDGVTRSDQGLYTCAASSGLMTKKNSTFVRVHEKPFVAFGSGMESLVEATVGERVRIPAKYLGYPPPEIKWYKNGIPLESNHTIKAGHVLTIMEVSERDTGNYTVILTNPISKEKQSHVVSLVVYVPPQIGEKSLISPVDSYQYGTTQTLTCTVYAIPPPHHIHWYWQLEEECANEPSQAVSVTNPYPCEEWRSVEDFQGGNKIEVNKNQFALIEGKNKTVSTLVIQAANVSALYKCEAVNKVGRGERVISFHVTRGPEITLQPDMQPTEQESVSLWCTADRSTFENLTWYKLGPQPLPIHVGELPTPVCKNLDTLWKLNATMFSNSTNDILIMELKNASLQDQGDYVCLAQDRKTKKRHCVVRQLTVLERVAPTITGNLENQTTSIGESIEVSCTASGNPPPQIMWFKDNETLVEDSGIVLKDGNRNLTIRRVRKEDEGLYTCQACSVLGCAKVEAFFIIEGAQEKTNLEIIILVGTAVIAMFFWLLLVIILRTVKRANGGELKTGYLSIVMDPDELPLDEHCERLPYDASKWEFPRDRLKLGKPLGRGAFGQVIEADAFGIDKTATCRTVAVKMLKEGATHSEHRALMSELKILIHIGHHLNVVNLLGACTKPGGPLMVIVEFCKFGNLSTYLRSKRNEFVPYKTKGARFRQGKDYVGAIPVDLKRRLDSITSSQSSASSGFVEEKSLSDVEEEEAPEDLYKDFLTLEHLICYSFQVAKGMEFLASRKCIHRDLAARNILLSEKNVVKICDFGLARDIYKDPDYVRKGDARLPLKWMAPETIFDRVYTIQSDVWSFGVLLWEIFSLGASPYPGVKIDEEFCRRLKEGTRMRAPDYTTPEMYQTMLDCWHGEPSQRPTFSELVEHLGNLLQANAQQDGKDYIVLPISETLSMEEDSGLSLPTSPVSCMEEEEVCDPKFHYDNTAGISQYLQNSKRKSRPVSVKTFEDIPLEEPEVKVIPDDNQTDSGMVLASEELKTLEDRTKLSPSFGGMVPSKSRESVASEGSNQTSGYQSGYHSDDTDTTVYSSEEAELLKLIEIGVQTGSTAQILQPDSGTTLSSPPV

`O=C(/C=C/c1ccc(O)cc1)c1ccccc1` [Compound 4b, (E)-3-(4-Hydroxyphenyl)-1-phenylprop-2-en-1-one] showed an IC50 [1, 6] of 2.08 to 34.9 µM, an IC50 ([1]; HCT-116 and HeLa, range over the compounds named, read-out: IC50 values, range against HCT-116 and HeLa) of 6.59 to 22.6 µM and an IC50 ([1]; MDA-MB-231 and MCF-7, range over the compounds named, read-out: IC50 values, range against MDA-MB-231 and MCF-7) of 2.08 to 13.6 µM. For the same compound, the IC50 (MCF-7 [2]) was 2.08 ± 0.1 µM, the “Cell Proliferation MCF-7 %” value (MCF-7 [3]; [7]) was 34% and the “Cell Proliferation MCF-7 Cell Count” value (MCF-7 [3]; mean ± SD of triplicate) was 6213 ± 221. For the same compound, the “Reduction of growth/cell count (inhibition) in MCF-7” value (MCF-7 [3]; relative to control) was 66%, the IC50 (MDA-MB-231) was 4.93 ± 0.3 µM and the IC50 (HeLa) was 13.1 ± 1.1 µM. For the same compound, the “Inhibition (%) VEGFR2” value (VEGFR-2; 0.01 µM) was 19.2% and 19.7%, the “Inhibition (%) VEGFR2” value (VEGFR-2; 0.1 µM) was 48.2% and 48.6% and the “Inhibition (%) VEGFR2” value (VEGFR-2; 1 µM) was 73.4%. The “Inhibition (%) VEGFR2” value (VEGFR-2; 10 µM) was 89% and 90%, the “Inhibition (%) VEGFR2” value (VEGFR-2; 100 µM) was 95.9% and the inhibition at 0.01 µM (VEGFR-2; read-out: Inhibition (%) VEGFR2, 0.01 µM) was 19.4%. The inhibition at 0.1 µM (VEGFR-2; read-out: Inhibition (%) VEGFR2, 0.1 µM) was 48.3%, the inhibition at 1 µM (VEGFR-2; read-out: Inhibition (%) VEGFR2, 1 µM) was 73.8% and the inhibition at 10 µM (VEGFR-2; read-out: Inhibition (%) VEGFR2, 10 µM) was 89.5%. For the same compound, the inhibition at 100 µM (VEGFR-2; read-out: Inhibition (%) VEGFR2, 100 µM) was 96.1%, the “Cell Proliferation MCF-7a %” value (MCF-7a; [7]) was 99% and the “Cell Proliferation MCF-7a Cell Count” value (MCF-7a; mean ± SD of triplicate) was 20,669 ± 597. For the same compound, the IC50 (HER2) was 0.387 ± 0.015 µM, the “Inhibition (%) Her2” value (HER2; 0.01 µM, individual Data 1-3) was 8.76% and 10.34% and the “Inhibition (%) Her2” value (HER2; 0.1 µM, individual Data 1-3) was 36.2% and 38.76%. The “Inhibition (%) Her2” value (HER2; 1 µM, individual Data 1-3) was 71.3% and 70.87%, the “Inhibition (%) Her2” value (HER2; 10 µM, individual Data 1-3) was 80.35% and 82.9% and the “Inhibition (%) Her2” value (HER2; 100 µM, individual Data 1-3) was 93% and 95.67%. It also gave an inhibition at 0.01 µM (HER2; read-out: Inhibition (%) Her2, 0.01 µM, individual Data 1-3) of 9.25%, an inhibition at 0.1 µM (HER2; read-out: Inhibition (%) Her2, 0.1 µM, individual Data 1-3) of 37.7% and an inhibition at 1 µM (HER2; read-out: Inhibition (%) Her2, 1 µM, individual Data 1-3) of 73%. The inhibition at 10 µM (HER2; read-out: Inhibition (%) Her2, 10 µM, individual Data 1-3) was 81.6%, the inhibition at 100 µM (HER2; read-out: Inhibition (%) Her2, 100 µM, individual Data 1-3) was 94.2% and the IC50 at 24 h [4] was 54.6 ± 3.1 µM. For the same compound, the IC50 (CDK2) was 0.288 ± 0.009 µM, the “Inhibition (%) CDK2” value (CDK2; 0.01 µM, individual Data 1-3) was 18.7% and 19.5% and the “Inhibition (%) CDK2” value (CDK2; 0.1 µM, individual Data 1-3) was 38.2% and 39.3%. The “Inhibition (%) CDK2” value (CDK2; 1 µM, individual Data 1-3) was 66.1% and 65.3%, the “Inhibition (%) CDK2” value (CDK2; 10 µM, individual Data 1-3) was 84.9% and 86% and the “Inhibition (%) CDK2” value (CDK2; 100 µM, individual Data 1-3) was 94.8%. For the same compound, the inhibition at 100 µM (CDK2; read-out: Inhibition (%) CDK2) was 93.8%, the inhibition at 0.01 µM (CDK2; read-out: Inhibition (%) CDK2, 0.01 µM, individual Data 1-3) was 19.1% and the inhibition at 0.1 µM (CDK2; read-out: Inhibition (%) CDK2, 0.1 µM, individual Data 1-3) was 38.5%. It also gave an inhibition at 1 µM (CDK2; read-out: Inhibition (%) CDK2, 1 µM, individual Data 1-3) of 66.9%, an inhibition at 10 µM (CDK2; read-out: Inhibition (%) CDK2, 10 µM, individual Data 1-3) of 85.4% and an inhibition at 100 µM (CDK2; read-out: Inhibition (%) CDK2, 100 µM, individual Data 1-3) of 94.1%. The “Inhibition (%) Aromatase” value ([5]; 0.01 µM) was 5.7% and 3.5% and 7.9%, the “Inhibition (%) Aromatase” value ([5]; 0.1 µM) was 9.9% and 14.2% and the “Inhibition (%) Aromatase” value ([5]; 1 µM) was 44% and 41.7%. The “Inhibition (%) Aromatase” value ([5]; 10 µM) was 72.5% and 78.6%, the “Inhibition (%) Aromatase” value ([5]; 100 µM) was 87% and 93.8% and the inhibition at 0.1 µM ([5]; read-out: Inhibition (%) Aromatase, 0.1 µM) was 11%. It also gave an inhibition at 1 µM ([5]; read-out: Inhibition (%) Aromatase, 1 µM) of 47.8%, an inhibition at 10 µM ([5]; read-out: Inhibition (%) Aromatase, 10 µM) of 75% and an inhibition at 100 µM ([5]; read-out: Inhibition (%) Aromatase, 100 µM) of 89%. For the same compound, the IC50 (HCT-116) was 6.59 ± 0.3 µM.

For `COc1ccccc1/C=C/C(=O)c1ccccc1` [Compound 4c, (E)-3-(2-Methoxyphenyl)-1-phenylprop-2-en-1-one], the IC50 [1, 6] was 23.5 to 74.5 µM, the IC50 (MCF-7 [2]) was 23.5 ± 1.6 µM and the IC50 (MDA-MB-231) was 35.9 ± 2.1 µM. It also gave an IC50 (HeLa) of 42.5 ± 2.5 µM, an IC50 at 24 h [4] of 77.3 to 100 µM and an IC50 (WI-38) of over 100 µM. For the same compound, the IC50 (HCT-116) was 28.4 ± 1.8 µM.
